Tests used:
Test in all cases: inside-out patch clamp, macroscopic current
Type in all cases: biochemical
[1] = molecular target: T1, WT-zCFTR (codon optimized zebrafish CFTR) (Danio rerio, UniProt Q1LX78); settings: 10 μM inhibitor, PKA-phosphorylated channel, pH 7.4, 22-24 °C
T1 construct: full-length wild type, codon-optimized cDNA (from J. Chen), co-transfected with peGFP-C3 in CHO cells; PKA-phosphorylated in patches
T1 sequence (Q1LX78 1-1485): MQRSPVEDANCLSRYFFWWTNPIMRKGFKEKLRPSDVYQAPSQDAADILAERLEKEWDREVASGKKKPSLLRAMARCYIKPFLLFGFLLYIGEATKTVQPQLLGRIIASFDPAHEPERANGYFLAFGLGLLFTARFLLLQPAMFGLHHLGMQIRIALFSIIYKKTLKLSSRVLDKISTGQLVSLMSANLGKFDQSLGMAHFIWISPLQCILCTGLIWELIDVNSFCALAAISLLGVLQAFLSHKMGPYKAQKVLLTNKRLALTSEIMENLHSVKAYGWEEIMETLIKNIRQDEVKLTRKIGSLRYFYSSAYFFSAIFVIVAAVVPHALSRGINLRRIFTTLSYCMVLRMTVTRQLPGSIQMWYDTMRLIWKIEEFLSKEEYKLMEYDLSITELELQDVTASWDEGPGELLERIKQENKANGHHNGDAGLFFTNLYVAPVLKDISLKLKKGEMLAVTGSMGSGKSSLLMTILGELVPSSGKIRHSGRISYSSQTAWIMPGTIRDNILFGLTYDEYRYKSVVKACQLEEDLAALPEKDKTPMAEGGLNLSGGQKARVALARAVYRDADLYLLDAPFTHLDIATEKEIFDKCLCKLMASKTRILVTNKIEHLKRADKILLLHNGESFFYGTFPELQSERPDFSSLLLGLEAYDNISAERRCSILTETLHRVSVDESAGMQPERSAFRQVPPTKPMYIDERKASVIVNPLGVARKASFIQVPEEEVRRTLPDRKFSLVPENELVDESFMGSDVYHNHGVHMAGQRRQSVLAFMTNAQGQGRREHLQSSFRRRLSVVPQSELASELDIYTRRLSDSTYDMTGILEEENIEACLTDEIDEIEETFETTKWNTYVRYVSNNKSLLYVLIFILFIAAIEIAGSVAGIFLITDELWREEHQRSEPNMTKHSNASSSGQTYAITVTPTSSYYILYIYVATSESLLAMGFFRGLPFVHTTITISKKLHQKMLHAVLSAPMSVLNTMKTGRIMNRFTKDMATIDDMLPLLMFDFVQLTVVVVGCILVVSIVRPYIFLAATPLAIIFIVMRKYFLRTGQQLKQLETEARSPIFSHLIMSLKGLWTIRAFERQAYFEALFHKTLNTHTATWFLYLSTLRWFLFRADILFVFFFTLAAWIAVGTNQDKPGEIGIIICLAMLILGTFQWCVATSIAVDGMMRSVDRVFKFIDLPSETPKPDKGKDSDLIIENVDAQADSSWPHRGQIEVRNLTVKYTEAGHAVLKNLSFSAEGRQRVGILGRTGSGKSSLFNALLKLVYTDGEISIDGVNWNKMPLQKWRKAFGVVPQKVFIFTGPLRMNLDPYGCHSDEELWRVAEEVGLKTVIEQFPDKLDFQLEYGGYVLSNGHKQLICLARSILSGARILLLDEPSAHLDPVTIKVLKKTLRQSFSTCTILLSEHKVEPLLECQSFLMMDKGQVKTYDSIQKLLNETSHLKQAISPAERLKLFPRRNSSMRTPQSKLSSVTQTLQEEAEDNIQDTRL

[2] = molecular target: T2, WT-nzCFTR (native form of zebrafish CFTR) (Danio rerio, UniProt Q1LX78); settings: 10 μM inhibitor, PKA-phosphorylated channel, pH 7.4, 22-24 °C
T2 construct: full-length wild type, native (not codon-optimized) cDNA from M. Bagnat lab, co-transfected with peGFP-C3 in CHO cells; PKA-phosphorylated in patches
T2 sequence (Q1LX78 1-1485): T1 sequence (Q1LX78 1-1485)

[3] = molecular target: T1, WT-zCFTR (codon optimized zebrafish CFTR); settings: 50 μM P-ATP relative to 2 mM ATP, PKA-phosphorylated channel, pH 7.4

| SMILES | inhibition ratio at 10 μM [1] | inhibition ratio at 10 μM [2] | IP-ATP/IATP [3] |
| --- | --- | --- | --- |
| O=C(O)c1ccc(/C=C2\SC(=S)N(c3cccc(C(F)(F)F)c3)C2=O)cc1 [CFTRinh-172] | 0.27 ± 0.03 | 0.30 ± 0.04 |  |
| O=P(O)(O)OP(=O)(O)OP(=O)(O)OC[C@H]1O[C@@H](n2cnc3c(NCCc4ccccc4)ncnc32)[C@H](O)[C@@H]1O [N6‐Phenylethyl‐ATP] |  |  | 0.88 ± 0.04 |
